Source: patent EP1137645B1, “ALPHA-METHYLBENZYL-CONTAINING THIOUREA INHIBITORS OF HERPES VIRUSES CONTAINING A […] GROUP” (Wyeth, priority 1998, dated 2000)
≈ marks a conversion by molar mass, not a printed value. Like-named read-outs stand apart in the source and are kept apart here.

How the values were obtained:
[1] = system: HSV- I; test: HSV antiviral (ELISA) assay; assay type: cell-based; details: read-out: IC50 (ug/ml) HSV
How it was run: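 IC50 from fluorescence versus untreated control in a cell ELISA: anti-glycoprotein D antibody, β-galactosidase-conjugated secondary, 4-methyl umbelliferone read at 365/450 nm. Vero cells (2% FBS DMEM) received compound 30 min pre-infection with HSV-1 at MOI 0.006, fixed ~24 h post-infection.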

[2] = system: VZV strain Ellen; test: VZV antiviral (ELISA) assay; assay type: cell-based
How it was run: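 HFF cells infected with VZV Ellen at multiplicity below 0.1 overnight, then mixed infected/uninfected cells seeded with compound in DMEM/2% FBS and incubated three days at 37°C, 5% CO2.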

[3] = system: HCMV recombinant mutant virus whose genome contains the prokaryotic beta-glucuronidase gene; test: microbe, parasite or virus in culture; assay type: cell-based, human cytomegalovirus; details: Human betaherpesvirus 5, Fibroblast
How it was run: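 Antiviral IC50 estimated from reduced reporter activity across compound amounts: lysates prepared 96 h after infection were tested with p-nitrophenyl- or methylumbelliferyl-glucuronide. Cells were human foreskin fibroblasts, infected alongside inhibitor with HCMV (e.g. RV145) expressing viral promoter-driven beta-glucuronidase.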

[4] = Human alphaherpesvirus 3, HFF, read-out: % inhibition 10 ug/ml VZV
[5] = Human alphaherpesvirus 3, HFF, read-out: IC50 (ug/ml) VZV
[6] = read-out: IC50 ug/ml HCMV, HCMV, human foreskin fibroblasts
[7] = Human alphaherpesvirus 3, VZV strain Ellen, HFF cells, ELISA, read-out: IC50 (ug/ml) VZV
[8] = Human alphaherpesvirus 3, HFF, read-out: IC50 (ug/ml) VZV, VZV strain Ellen, HFF cells, ELISA
[9] = Human alphaherpesvirus 3, read-out: % inhibition 10 ug/ml VZV, 10 ug/ml, VZV strain Ellen, HFF cells, ELISA

Compound | IC50 ([1]; HSV- I, Vero cells, ELISA) [µg/mL] | inhibition at 10 µg/mL [2, 4] [%] | IC50 [2, 5] [µg/mL] | IC50 [3, 6] [µg/mL] | IC50 [2, 7] [µg/mL] | IC50 ([3]; read-out: IC50 ug/ml HCMV) [µg/mL] | IC50 ([1]; Vero) [µg/mL] | IC50 [2, 8] [µg/mL] | inhibition at 10 µg/mL [2, 9] [%]
O=C(Nc1ccc(NC(=S)Nc2cc(Cl)cc(Cl)c2)cc1)c1ccccc1F [Example 934, N-{4-[3-(3,5-Dichloro-phenyl)-thioureido]-phenyl}-2-fluoro-benzamide] | > 10 | 18 | > 10 | > 10 |  |  |  |  | 
CC(NC(=S)Nc1ccc(NC(=O)c2ccccc2F)cc1)c1ccccc1C(F)(F)F (stereo not shown) [Example 785, 2-Fluoro-N-(4-{3-[1-(2-trifluoromethyl-phenyl)-ethyl]-thioureido}-phenyl)-benzamide] | > 10 |  |  |  | > 7.5 | > 2.2 |  |  | 
COc1cc(OC)c(NC(=S)Nc2ccc(NC(=O)c3ccccc3OC)cc2)cc1Cl [Example 119, N-{4-[3-(5-Chloro-2,4-dimethoxy-phenyl)-thioureido]-phenyl}-2-methoxy-benzamide] | 0.5 (≈ 1.06 µM) | 1 | > 10 | > 10 |  |  |  |  | 
CC(NC(=S)Nc1ccc(NC(=O)c2ccccc2F)cc1)c1ccc(Cl)cc1 (stereo not shown) [Example 781, N-(4-{3-[1-(4-Chloro-phenyl)-ethyl]-thioureido}-phenyl)-2-fluoro-benzamide] |  |  |  | 1.8 (≈ 4.21 µM) |  |  | > 10 | 0.6 (≈ 1.4 µM) | 
COc1ccc(NC(=S)Nc2ccc(NC(=O)c3ccccc3F)cc2)cc1I [Example 810, 2-Fluoro-N-{4-[3-(3-iodo-4-methoxy-phenyl)-thioureido]-phenyl}-benzamide] | 1.1 (≈ 2.11 µM) |  |  |  | > 7.5 | 2.7 (≈ 5.18 µM) |  |  | 
CC(NC(=S)Nc1ccc(NC(=O)c2ccccc2F)cc1)c1ccc2ccccc2c1 (stereo not shown) [Example 799, 2-Fluoro-N-{4-[3-(1-naphthalen-2-yl-ethyl)-thioureido]-phenyl}-benzamide] |  |  |  | 1.7 (≈ 3.83 µM) |  |  | > 10 | > 7.5 | 
CCCCOc1cccc(C(=O)Nc2ccc(NC(=S)Nc3cc(Cl)c(OC)cc3OC)cc2)c1 [Example 219, 3-Butoxy-N-{4-[3-(5-chloro-2,4-dimethoxy-phenyl)-thioureido]-phenyl}-benzamide] | 2.5 (≈ 4.86 µM) | 30 | > 10 | > 10 |  |  |  |  | 
COc1cccc(C(=O)Nc2ccc(NC(=S)Nc3cc(Cl)c(OC)c(Cl)c3)cc2)c1 [Example 875, N-{4-[3-(3,5-Dichloro-4-methoxy-phenyl)-thioureido]-phenyl}-3-methoxy-benzamide] | 6 (≈ 12.6 µM) | 20 | > 10 | 0.4 (≈ 0.84 µM) |  |  |  |  | 
CC(=O)Nc1cccc(NC(=S)Nc2ccc(NC(=O)c3ccccc3F)cc2)c1 [Example 477, N-{4-[3-(3-Acetylamino-phenyl)-thioureido]-phenyl}-2-fluoro-benzamide] | > 10 |  |  |  | > 10 | > 10 |  |  | 15
COc1cc(C)c(Cl)cc1NC(=S)Nc1ccc(NC(=O)c2c(F)cccc2F)cc1 [Example 333, N-{4-[3-(5-Chloro-2-methoxy-4-methyl-phenyl)-thioureido]-phenyl}-2,6-difluoro-benzamide] | 0.04 (≈ 0.0866 µM) | 92 | 4.5 (≈ 9.74 µM) | 2.5 (≈ 5.41 µM) |  |  |  |  | 
COc1cc(OC)c(NC(=S)Nc2ccc(NC(=O)c3cccc4c3OCO4)cc2)cc1Cl [Example 255, Benzo[1,3]dioxole-4-carboxylic acid {4-[3-(5-chloro-2,4-dimethoxy-phenyl)-thioureido]-phenyl}-amide] | 1.2 (≈ 2.47 µM) | 0 | > 10 | > 10 |  |  |  |  | 
COc1cc(OC)c(NC(=S)Nc2ccc(NC(=O)c3ccccc3F)cc2)cc1Cl [Example 118, N-{4-[3-(5-Chloro-2,4-dimethoxy-phenyl)-thioureido]-phenyl}-2-fluoro-benzamide] |  |  |  | 3 (≈ 6.52 µM) |  |  | 0.15 (≈ 0.326 µM) | > 10 | 
CC1CCCCN1CC(=O)Nc1ccc(NC(=S)Nc2ccc(NC(=O)c3ccccc3F)cc2)cc1Cl (stereo not shown) [Example 425, N-[4-(3-{3-Chloro-4-[2-(2-methyl-piperidin-1-yl)-acetylamino]-phenyl}-thioureido)-phenyl]-2-fluoro-benzamide] |  | 103 | > 7.5 | 0.5 (≈ 0.902 µM) |  |  | 3 (≈ 5.41 µM) |  | 
Cc1ccccc1C(=O)Nc1ccc(NC(=S)Nc2ccc(N(C)C3CCN(C)CC3)c(Cl)c2)cc1 [Example 375, N-[4-(3-{3-Chloro-4-[methyl-(1-methyl-piperidin-4-yl)-amino]-phenyl}-thioureido)-phenyl]-2-methyl-benzamide] | 5 (≈ 9.58 µM) | 95 | 7 (≈ 13.4 µM) | 1.5 (≈ 2.87 µM) |  |  |  |  | 
Nc1ccc(F)cc1NC(=S)Nc1ccc(NC(=O)c2ccccc2F)cc1 [Example 1007, N-{4-[3-(2-Amino-5-fluoro-phenyl)-thioureido]-phenyl}-2-fluoro-benzamide] | 1.2 (≈ 3.01 µM) |  |  |  | > 10 | > 10 |  |  | 
Cc1ccc(NC(=S)Nc2ccc(NC(=O)c3ccccc3C)cc2)cc1Cl [Example 234, N-{4-[3-(3-Chloro-4-methyl-phenyl)-thioureido]-phenyl}-2-methyl-benzamide] | 0.2 (≈ 0.488 µM) | 68 | > 10 | 1 (≈ 2.44 µM) |  |  |  |  | 
O=C(Nc1ccc(NC(=S)Nc2ccc(Cl)c(C(F)(F)F)c2)cc1)c1c(F)cccc1F [Example 380, N-{4-[3-(4-Chloro-3-trifluoromethyl-phenyl)-thioureido]-phenyl}-2,6-difluoro-benzamide] | > 10 | 50 | > 10 | > 10 |  |  |  |  | 
O=C(Nc1ccc(NC(=S)Nc2ccccc2Cl)cc1)c1ccccc1F [Example 948, N-{4-[3-(2-Chloro-phenyl)-thioureido]-phenyl}-2-fluoro-benzamide] | 6 (≈ 15 µM) | 4 | > 10 | 4 (≈ 10 µM) |  |  |  |  | 
COc1ccc(NC(=S)Nc2ccc(NC(=O)c3ccc(F)cc3)cc2)cc1Cl [Example 823, N-{4-[3-(3-Chloro-4-methoxy-phenyl)-thioureido]-phenyl}-4-fluoro-benzamide] | 6 (≈ 14 µM) | 7 | > 10 | 6 (≈ 14 µM) |  |  |  |  | 
O=C(Nc1ccc(NC(=S)Nc2cccc(S(=O)(=O)CCO)c2)cc1)c1ccccc1F [Example 969, 2-Fluoro-N-(4-{3-[3-(2-hydroxy-ethanesulfonyl)-phenyl]-thioureido}-phenyl)-benzamide] | > 10 | 19 | > 10 | > 10 |  |  |  |  | 
COc1ccc(NC(=S)Nc2ccc(NC(=O)c3ccccc3)cc2)cc1Cl [Example 817, N-{4-[3-(3-Chloro-4-methoxy-phenyl)-thioureido]-phenyl}-benzamide] | 1 (≈ 2.43 µM) | 66 | 12 (≈ 29.1 µM) | 2 (≈ 4.86 µM) |  |  |  |  | 
Nc1cccc(NC(=S)Nc2ccc(NC(=O)c3ccccc3F)cc2)c1 [Example 434, N-{4-[3-(3-Amino-phenyl)-thioureido]-phenyl}-2-fluoro-benzamide] | 10 (≈ 26.3 µM) |  |  |  | > 10 | 5 (≈ 13.1 µM) |  |  | 0
O=C(Nc1ccc(NC(=S)Nc2cc(Cl)c(Cl)c(Cl)c2)cc1)c1ccccc1F [Example 937, 2-Fluoro-N-{4-[3-(3,4,5-trichloro-phenyl)-thioureido]-phenyl}-benzamide] | 0.7 (≈ 1.49 µM) |  |  |  | > 10 | 2 (≈ 4.27 µM) |  |  | 25
CC(NC(=S)Nc1ccc(NC(=O)c2cccc(F)c2)cc1)c1ccc(F)cc1 (stereo not shown) [Example 800, 3-Fluoro-N-(4-{3-[1-(4-fluoro-phenyl)-ethyl]-thioureido}-phenyl)-benzamide] | > 10 |  |  |  | > 7.5 | > 10 |  |  | 
COc1ccccc1C(=O)Nc1ccc(NC(=S)NC(C)c2ccc(C#N)cc2)cc1 (stereo not shown) [Example 1017, N-(4-{3-[1-(4-Cyano-phenyl}-ethyl]-thioureido}-phenyl)-2-methoxy-benzamide] |  |  |  | > 10 |  |  | > 10 | 0.3 (≈ 0.697 µM) | 
O=C(Nc1ccc(NC(=S)NCCc2cccc(Cl)c2)cc1)c1ccccc1F [Example 563, N-(4-{3-[2-(3-Chloro-phenyl)-ethyl]-thioureido}-phenyl)-2-fluoro-benzamide] |  |  |  | > 0.5 |  |  | > 10 | 9 (≈ 21 µM) | 
COc1ccc(C(=O)Nc2ccc(NC(=S)Nc3cc(Br)c(OC)cc3OC)cc2)cc1 [Example 830, N-{4-[3-(5-Bromo-2,4-dimethoxy-phenyl)-thioureido]-phenyl}-4-methoxy-benzamide] | 1.5 (≈ 2.9 µM) | 16 | > 10 | > 10 |  |  |  |  | 
COc1cc(OC)c(NC(=S)Nc2ccc(NC(=O)c3ccccc3O)cc2)cc1Cl [Example 139, N-{4-[3-(5-Chloro-2,4-dimethoxy-phenyl)-thioureido]-phenyl}-2-hydroxy-benzamide] | 6 (≈ 13.1 µM) | 95 | 4 (≈ 8.73 µM) | 6 (≈ 13.1 µM) |  |  |  |  | 
CC(NC(=S)Nc1ccc(NC(=O)c2cnc3ccccc3c2)cc1)c1ccc(F)cc1 (stereo not shown) [Example 988, Quinoline-3-carboxylic acid (4-{3-[1-(4-fluoro-phenyl)-ethyl]-thioureido}-phenyl)-amide] | > 10 |  | 3.4 (≈ 7.65 µM) | > 10 |  |  |  |  | 
